Measurements published in the supplement of paper PMC4862054.

Legend:
Conditions in all cases: incubation time: 72 h
CAL-148 [1] = assay: normalised viability (% of control), CellTiter-Blue; higher = more viable cells (about 100 = DMSO control)
Experimental: (§1)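 DSRT, CellTiter-Blue viability, 72 h incubation. Signal is normalised to DMSO and benzethonium chloride controls. Value is the normalised response at dose 9.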

CAL-51 [2] = assay: as above
Experimental: as §1

CAL-85-1 [3] = assay: as above
Experimental: as §1

DU-4475 [4] = assay: as above
Experimental: as §1

HDQ-P1 [5] = assay: as above
Experimental: as §1

MDA-MB-453 [6] = assay: as above
Experimental: as §1

BT-474 = assay: normalised viability (% of control), CellTiter-Blue; higher = more viable cells (100 = DMSO, 0 = benzethonium chloride kill control)
Experimental: (§2)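 DSRT, CellTiter-Blue viability, 72 h incubation. Signal is normalised to DMSO and benzethonium chloride controls. Value is the normalised response at dose 1.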

BT-549 = assay: as above
Experimental: as §2

CAL-120 = assay: as above
Experimental: as §2

CAL-148 [7] = assay: as above
Experimental: as §2

CAL-51 [8] = assay: as above
Experimental: as §2

CAL-85-1 [9] = assay: as above
Experimental: as §2

DU-4475 [10] = assay: as above
Experimental: as §2

HCC1143 = assay: as above
Experimental: as §2

HCC1599 = assay: as above
Experimental: as §2

HCC1937 = assay: as above
Experimental: as §2

HDQ-P1 [11] = assay: as above
Experimental: as §2

Hs578T = assay: as above
Experimental: as §2

MDA-MB-231 = assay: as above
Experimental: as §2

MDA-MB-436 = assay: as above
Experimental: as §2

MDA-MB-453 [12] = assay: as above
Experimental: as §2

MDA-MB-468 = assay: as above
Experimental: as §2

MFM-223 = assay: as above
Experimental: as §2

SK-BR-3 = assay: as above
Experimental: as §2

CAL-148 [13] = assay: normalised viability (% of control), CellTiter-Blue; higher = more viable cells (about 100 = DMSO control); remark: listed apart in the source
Experimental: (§3)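 DSRT, CellTiter-Blue viability, 72 h incubation. Signal is normalised to DMSO and benzethonium chloride controls. Value is the normalised response at dose 8.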

CAL-51 [14] = assay: as above; remark: listed apart in the source
Experimental: as §3

CAL-85-1 [15] = assay: as above; remark: listed apart in the source
Experimental: as §3

DU-4475 [16] = assay: as above; remark: listed apart in the source
Experimental: as §3

HDQ-P1 [17] = assay: as above; remark: listed apart in the source
Experimental: as §3

MDA-MB-453 [18] = assay: as above; remark: listed apart in the source
Experimental: as §3

Compound | normalised viability (CAL-148 [1]) [%] | normalised viability (CAL-51 [2]) [%] | normalised viability (CAL-85-1 [3]) [%] | normalised viability (DU-4475 [4]) [%] | normalised viability (HDQ-P1 [5]) [%] | normalised viability (MDA-MB-453 [6]) [%] | normalised viability (CAL-148 [13]) [%] | normalised viability (CAL-51 [14]) [%] | normalised viability (CAL-85-1 [15]) [%] | normalised viability (DU-4475 [16]) [%] | normalised viability (HDQ-P1 [17]) [%] | normalised viability (MDA-MB-453 [18]) [%] | also measured
C[C@]12CC[C@@H]3c4ccc(O)cc4C[C@@H](CCCCCCCCC[S+]([O-])CCCC(F)(F)C(F)(F)F)[C@H]3[C@@H]1CC[C@@H]2O (stereo partly specified) [Fulvestrant] (10000 nM) | 102 | 101 | 99.3 | 115 | 113 | 66.8 | – | – | – | – | – | – | –
N.N.[Cl][Pt][Cl] [Cisplatin] (10000 nM) | 105 | 105 | 99.5 | 112 | 110 | 97.4 | – | – | – | – | – | – | –
Cc1ccc(C(=O)N(CCCN)[C@@H](c2oc3cc(Cl)ccc3c(=O)c2Cc2ccccc2)C(C)C)cc1 (1000 nM) | 17.6 | 18.8 | 32.5 | 7.45 | 72.4 | 24.6 | – | – | – | – | – | – | –
CC(=O)Nc1ccc(C(=O)Nc2ccccc2N)cc1 [CI-994] (1000 nM) | 96.2 | 95.3 | 98.5 | 80.7 | 108 | 101 | – | – | – | – | – | – | –
NC(=O)Nc1cc(-c2cccc(F)c2)sc1C(=O)N[C@H]1CCCNC1 [AZD 7762] (1000 nM) | 21.4 | 8.63 | 22.8 | 0.66 | 18 | 19.6 | – | – | – | – | – | – | –
NCC(=O)CCC(=O)O [Aminolevulinic acid] (10000 nM) | 104 | 83.2 | 76.9 | 111 | 106 | 87.7 | – | – | – | – | – | – | –
NC(=O)Nc1cc(-c2cccc(F)c2)sc1C(=O)N[C@H]1CCCNC1 [AZD 7762] (0.1 nM) | – | – | – | – | – | – | – | – | – | – | – | – | normalised viability (BT-474): 115%; normalised viability (BT-549): 108%; normalised viability (CAL-120): 102%; normalised viability (CAL-148 [7]): 104%; normalised viability (CAL-51 [8]): 101%; normalised viability (CAL-85-1 [9]): 107%; normalised viability (DU-4475 [10]): 101%; normalised viability (HCC1143): 115%; normalised viability (HCC1599): 89%; normalised viability (HCC1937): 119%; normalised viability (HDQ-P1 [11]): 132%; normalised viability (Hs578T): 124%; normalised viability (MDA-MB-231): 115%; normalised viability (MDA-MB-436): 115%; normalised viability (MDA-MB-453 [12]): 117%; normalised viability (MDA-MB-468): 111%; normalised viability (MFM-223): 108%; normalised viability (SK-BR-3): 102%
NCC(=O)CCC(=O)O [Aminolevulinic acid] (1 nM) | – | – | – | – | – | – | – | – | – | – | – | – | normalised viability (BT-474): 108%; normalised viability (BT-549): 91.1%; normalised viability (CAL-120): 86.6%; normalised viability (CAL-148 [7]): 109%; normalised viability (CAL-51 [8]): 107%; normalised viability (CAL-85-1 [9]): 99.4%; normalised viability (DU-4475 [10]): 107%; normalised viability (HCC1143): 91.7%; normalised viability (HCC1599): 85%; normalised viability (HCC1937): 79.4%; normalised viability (HDQ-P1 [11]): 110%; normalised viability (Hs578T): 104%; normalised viability (MDA-MB-231): 118%; normalised viability (MDA-MB-436): 105%; normalised viability (MDA-MB-453 [12]): 98.8%; normalised viability (MDA-MB-468): 103%; normalised viability (MFM-223): 96.5%; normalised viability (SK-BR-3): 89%
CCN(CCCOc1ccc2c(Nc3cc(CC(=O)Nc4cccc(F)c4)[nH]n3)ncnc2c1)CCOP(=O)(O)O [Barasertib] (0.1 nM) | – | – | – | – | – | – | – | – | – | – | – | – | normalised viability (BT-474): 109%; normalised viability (BT-549): 103%; normalised viability (CAL-120): 95.5%; normalised viability (CAL-148 [7]): 105%; normalised viability (CAL-51 [8]): 95.4%; normalised viability (CAL-85-1 [9]): 105%; normalised viability (DU-4475 [10]): 123%; normalised viability (HCC1143): 107%; normalised viability (HCC1599): 105%; normalised viability (HCC1937): 104%; normalised viability (HDQ-P1 [11]): 96.5%; normalised viability (Hs578T): 135%; normalised viability (MDA-MB-231): 113%; normalised viability (MDA-MB-436): 118%; normalised viability (MDA-MB-453 [12]): 93.3%; normalised viability (MDA-MB-468): 112%; normalised viability (MFM-223): 102%; normalised viability (SK-BR-3): 108%
CC(=O)Nc1ccc(C(=O)Nc2ccccc2N)cc1 [CI-994] (0.1 nM) | – | – | – | – | – | – | – | – | – | – | – | – | normalised viability (BT-474): 86.4%; normalised viability (BT-549): 92.6%; normalised viability (CAL-120): 110%; normalised viability (CAL-148 [7]): 100%; normalised viability (CAL-51 [8]): 89.6%; normalised viability (CAL-85-1 [9]): 98.3%; normalised viability (DU-4475 [10]): 93.2%; normalised viability (HCC1143): 105%; normalised viability (HCC1599): 92.6%; normalised viability (HCC1937): 102%; normalised viability (HDQ-P1 [11]): 107%; normalised viability (Hs578T): 117%; normalised viability (MDA-MB-231): 91.9%; normalised viability (MDA-MB-436): 91.2%; normalised viability (MDA-MB-453 [12]): 101%; normalised viability (MDA-MB-468): 98.9%; normalised viability (MFM-223): 105%; normalised viability (SK-BR-3): 95.5%
CC(C)Cn1cnc2c(N)nc3ccccc3c21 [Imiquimod] (10000 nM) | 99 | 92 | 100 | 109 | 105 | 75.2 | – | – | – | – | – | – | –
C[C@@H](Oc1cc(-c2cnn(C3CCNCC3)c2)cnc1N)c1c(Cl)ccc(F)c1Cl [Crizotinib] (10000 nM) | 48.6 | 31.2 | 39.5 | 11.7 | 39.6 | 24.9 | – | – | – | – | – | – | –
CO[C@H]1/C=C\C=C(/C)C(=O)NC2=CC(=O)C(NCCN(C)C)=C(C[C@@H](C)C[C@H](OC)[C@H](O)[C@@H](C)/C=C(\C)[C@@H]1OC(N)=O)C2=O [Alvespimycin] (300 nM) | – | – | – | – | – | – | 14.8 | 18.2 | 24.4 | 1.07 | 33.1 | 8.24 | –
Clc1ccc(Nc2nnc(Cc3ccncc3)c3ccccc23)cc1 [Vatalanib] (3000 nM) | – | – | – | – | – | – | 75 | 104 | 94 | 111 | 91.8 | 75.2 | –
C#Cc1cccc(Nc2ncnc3cc(OCCOC)c(OCCOC)cc23)c1 [Erlotinib] (3000 nM) | – | – | – | – | – | – | 66.9 | 95.9 | 49.8 | 108 | 75.4 | 73.5 | –
CCN(CCCOc1ccc2c(Nc3cc(CC(=O)Nc4cccc(F)c4)[nH]n3)ncnc2c1)CCOP(=O)(O)O [Barasertib] (1000 nM) | 26.3 | 42 | 81.2 | 40.8 | 96.2 | 44.1 | – | – | – | – | – | – | –
CC(C)Cn1cnc2c(N)nc3ccccc3c21 [Imiquimod] (1 nM) | – | – | – | – | – | – | – | – | – | – | – | – | normalised viability (BT-474): 90.6%; normalised viability (BT-549): 105%; normalised viability (CAL-120): 92.5%; normalised viability (CAL-148 [7]): 98.1%; normalised viability (CAL-51 [8]): 101%; normalised viability (CAL-85-1 [9]): 108%; normalised viability (DU-4475 [10]): 110%; normalised viability (HCC1143): 101%; normalised viability (HCC1599): 109%; normalised viability (HCC1937): 118%; normalised viability (HDQ-P1 [11]): 104%; normalised viability (Hs578T): 107%; normalised viability (MDA-MB-231): 85.8%; normalised viability (MDA-MB-436): 107%; normalised viability (MDA-MB-453 [12]): 108%; normalised viability (MDA-MB-468): 109%; normalised viability (MFM-223): 97%; normalised viability (SK-BR-3): 89.5%
CCN(CCCOc1ccc2c(Nc3cc(CC(=O)Nc4cccc(F)c4)[nH]n3)ncnc2c1)CCOP(=O)(O)O [Barasertib] (300 nM) | – | – | – | – | – | – | 22.6 | 54 | 73.1 | 63.8 | 64.3 | 61 | –
C[C@]12CC[C@@H]3c4ccc(O)cc4C[C@@H](CCCCCCCCC[S+]([O-])CCCC(F)(F)C(F)(F)F)[C@H]3[C@@H]1CC[C@@H]2O (stereo partly specified) [Fulvestrant] (3000 nM) | – | – | – | – | – | – | 104 | 99.7 | 94.6 | 107 | 90.4 | 92.8 | –
NCC(=O)CCC(=O)O [Aminolevulinic acid] (3000 nM) | – | – | – | – | – | – | 96.7 | 109 | 88.7 | 110 | 103 | 122 | –
O=C1CCC(N2C(=O)c3ccccc3C2=O)C(=O)N1 (stereo unspecified) [Thalidomide] (3000 nM) | – | – | – | – | – | – | 113 | 89.8 | 91.7 | 110 | 99.7 | 99.4 | –
